Consider one molecule from patent US20110130427A1, “PESTICIDAL COMPOSITION” (ISHIHARA SANGYO KAISHA, LTD., priority 2008, published 2011).

The subject of experiment [1] is serpentine leaf miner (Liriomyza trifolii). In words: Test Example 1: controlling effects against serpentine leaf miner, Example 1 dilution with polyoxyethylene alkyl ether phosphoric acid ester. In kind it is in vivo. On the procedure:
(§1) The above components are mixed, and the obtained solution is diluted 2,000 times or 4,000 times with water containing a polyoxyethylene alkyl ether phosphoric acid ester, followed by spraying (active ingredient concentration: 25 ppm or 12.5 ppm).
Kidney bean planted in a pot having a diameter of 7 cm was put in a breeding case wherein adults of serpentine leaf miner (Liriomyza trifolii) were released and permitted to lay eggs for 2 days. Thereafter, the test plant was taken out and left for 1 day, and then, a water-diluted liquid containing 100 ppm or 250 ppm of the polyoxyethylene alkyl ether phosphoric acid ester prepared in the above Example 1, was sprayed twice on each of the front and rear sides of the Kidney bean leaf by means of a hand spray. After drying in air, the Kidney bean was left to stand for 5 days in an illuminated constant temperature chamber at 25° C., whereupon the number of pupae on each leaf was counted, and the protective value was calculated by the following formula. The test was repeated twice. As the polyoxyethylene alkyl ether phosphoric acid ester, PHOSPHANOL RD-510Y, PHOSPHANOL RS-610 and PHOSPHANOL RS-710 (manufactured by Toho Chemical Industry Co., Ltd.) and ADEKA COL PS-440E (manufactured by ADEKA) were used.
(§2) For the purpose of comparison, a water-diluted liquid having no polyoxyethylene alkyl ether phosphoric acid ester added, was prepared, and spray treatment was carried out in the same manner.
(§3) Protective value (%)=(1−(the number of pupae at treated section/the number of pupae at untreated section))×100

For experiment [2], the system named is serpentine leaf miner. The experiment can be described thus: Test Example 2: controlling effects against serpentine leaf miner, Example 1 dilution with polyoxyethylene arylether phosphoric acid ester. In kind it is in vivo, Liriomyza trifolii. On the procedure:
as §1, §3
Kidney bean planted in a pot having a diameter of 7 cm was put in a breeding case wherein adults of serpentine leaf miner were released and permitted to lay eggs for 2 days. Thereafter, the test plant was taken out and left for 1 day, and then, a water-diluted liquid containing 50 ppm of a polyoxyethylene arylether phosphoric acid ester, prepared by replacing the polyoxyethylene alkyl ether phosphoric acid ester in the above Example 1 by a polyoxyethylene arylether phosphoric acid ester, was sprayed twice on each of the front and rear sides of the Kidney bean leaf by means of a hand spray. After drying in air, the Kidney bean was left to stand for 5 days in an illuminated constant temperature chamber at 25° C., whereupon the number of pupae on each leaf was counted, and the protective value was calculated in the same manner as in Test Example 1. The test was repeated twice. As the polyoxyethylene arylether phosphoric acid ester, and ADEKA COL CS-1361E (manufactured by ADEKA) was used.
For the purpose of comparison, a water-diluted liquid n having no polyoxyethylene arylether phosphoric acid ester added, was prepared, and spray treatment was carried out in the same manner.

For experiment [3], the system named is serpentine leaf miner. In words: Test Example 3: controlling effects against serpentine leaf miner, liquid composition of Example 4 diluted with water. In kind it is in vivo, Liriomyza trifolii. The procedure: […] of Compound 1 and 20.0 g of a polyoxyalkylene phosphoric acid ester surfactant are dissolved in 74.7 g of N,N-dimethylacetamide to obtain 100 g of a transparent liquid composition containing 5 wt % of Compound 1.
as §3
Kidney bean planted in a pot having a diameter of 7 cm was put in a breeding case wherein adults of serpentine leaf miner were released and permitted to lay eggs for 2 days. Thereafter, the test plant was taken out and left for 2 days, the liquid composition obtained in accordance with the above Example 4 was diluted with water to prepare a test liquid containing 50 ppm or 100 ppm of the polyoxyalkylene phosphoric acid ester surfactant. Each test liquid was a suspension solution having fine particles uniformly dispersed. The suspension solution was sprayed twice on each of the front and rear sides of the Kidney bean leaf by means of a hand spray. After drying in air, the Kidney bean was left to stand for 5 days in an illuminated constant temperature chamber at 25° C., whereupon the number of pupae on each leaf was counted, and the protective value was calculated in the same manner as in Test Example 1. The test was repeated twice. As the polyoxyalkylene phosphoric acid ester surfactant, ADEKA COL PS-440E (manufactured by ADEKA) and PHOSPHANOL RS-610 (manufactured by Toho Chemical Industry, Co., Ltd.) as polyoxyethylene alkyl ether phosphoric acid esters, and ADEKA COL CS-1361E (manufactured by ADECA) as a polyoxyethylene arylether phosphoric acid ester were used.
as §2

On to `CC(NC(=O)c1cc(Cl)cc(Br)c1NC(=O)c1cc(Br)nn1-c1ncccc1Cl)C1CC1` (stereo not drawn) [Compound 1, 3-Bromo-N-(2-bromo-4-chloro-6-(1-cyclopropylethylcarbamoyl)phenyl)-1-(3-chloropyridin-2-yl)-1H-pyrazole-5-carboxamide], for which the “Protective value (%)” value in experiment [1] (Compound 1 12.5 ppm + PS-440E 100 ppm, foliar spray on Kidney bean, pupae counted after 5 days) amounted to 100%; in experiment [1] (Compound 1 12.5 ppm + PS-440E 250 ppm, foliar spray on Kidney bean, pupae counted after 5 days), 100%; in experiment [1] (Compound 1 12.5 ppm + RD-510Y 250 ppm, foliar spray on Kidney bean, pupae counted after 5 days), 70%; in experiment [1] (Compound 1 12.5 ppm + RS-610 250 ppm, foliar spray on Kidney bean, pupae counted after 5 days), 100%; in experiment [1] (Compound 1 12.5 ppm + RS-710 250 ppm, foliar spray on Kidney bean, pupae counted after 5 days) it was 100%; in experiment [1] (Compound 1 12.5 ppm, no polyoxyethylene alkyl ether phosphoric acid ester (comparative section)) it was 0%. Besides, the “Protective value (%)” value in experiment [1] (Compound 1 25 ppm + PS-440E 100 ppm, foliar spray on Kidney bean, pupae counted after 5 days) was determined as 100%; in experiment [1] (Compound 1 25 ppm + PS-440E 250 ppm, foliar spray on Kidney bean, pupae counted after 5 days), 100%; in experiment [1] (Compound 1 25 ppm + RD-510Y 250 ppm, foliar spray on Kidney bean, pupae counted after 5 days) it was 100%; in experiment [1] (Compound 1 25 ppm + RS-610 250 ppm, foliar spray on Kidney bean, pupae counted after 5 days), 100%; in experiment [1] (Compound 1 25 ppm + RS-710 250 ppm, foliar spray on Kidney bean, pupae counted after 5 days), 100%; in experiment [1] (Compound 1 25 ppm, no polyoxyethylene alkyl ether phosphoric acid ester (comparative section)), 0%. Also, the “Protective value (%)” value with serpentine leaf miner [2] (Compound 1 12.5 ppm + CS-1361E 50 ppm, foliar spray on Kidney bean, pupae counted after 5 days) was determined as 100%; in the experiment on serpentine leaf miner [2] (Compound 1 12.5 ppm, no polyoxyethylene arylether phosphoric acid ester (comparative section)) it was 0%; in the experiment with serpentine leaf miner [2] (Compound 1 25 ppm + CS-1361E 50 ppm, foliar spray on Kidney bean, pupae counted after 5 days), 100%; in the experiment with serpentine leaf miner [2] (Compound 1 25 ppm, no polyoxyethylene arylether phosphoric acid ester (comparative section)), 50%; with serpentine leaf miner [3] (Compound 1 12.5 ppm + PS-440E 50 ppm (Example 4 composition), foliar spray on Kidney bean, pupae counted after 5 days), 77%; in the experiment with serpentine leaf miner [3] (Compound 1 12.5 ppm + RS-610 50 ppm (Example 4 composition), foliar spray on Kidney bean, pupae counted after 5 days), 89%. Besides, the “Protective value (%)” value in the experiment on serpentine leaf miner [3] (Compound 1 12.5 ppm, no polyoxyalkylene phosphoric acid ester surfactant (comparative section)) is reported as 0%; with serpentine leaf miner [3] (Compound 1 25 ppm + CS-1361E 100 ppm (Example 4 composition), foliar spray on Kidney bean, pupae counted after 5 days), 100%; with serpentine leaf miner [3] (Compound 1 25 ppm, no polyoxyalkylene phosphoric acid ester surfactant (comparative section)) it was 46%.
